Assay results as given in the NIST ThermoML archive (doi:10.1021/je4000372).
Numbers after ± are expanded uncertainties.

Assays:
[1] = 101 kPa, Liquid; for viscosity: Capillary tube (Ostwald / Ubbelohde) method; for mass density: Pycnometric method
[2] = xn = mol fraction of the nth substance listed; conditions: 101 kPa, Liquid; for viscosity: Capillary tube (Ostwald / Ubbelohde) method; for mass density: Pycnometric method

OCCN(CCO)CCO [triethanolamine]
[1]
Conditions | mass density [kg/m3] | viscosity [mPa·s]
293.15 K | 1124.3 ± 2.3 | 917.6 ± 51
303.15 K | 1118.5 ± 2.3 | 404.7 ± 19
313.15 K | 1112.8 ± 2.3 | 203.9 ± 8.2
323.15 K | 1107.1 ± 2.3 | 108.3 ± 3.8
333.15 K | 1101.5 ± 2.3 | 64.2 ± 2.2

OCCNCCO [diethanolamine]
[1]
Conditions | mass density [kg/m3] | viscosity [mPa·s]
293.15 K | 1096.1 ± 2.3 | 890.9 ± 49
303.15 K | 1089.8 ± 2.2 | 382.2 ± 18
313.15 K | 1083.7 ± 2.2 | 187.6 ± 7.4
323.15 K | 1077.4 ± 2.2 | 99.11 ± 3.4
333.15 K | 1070.7 ± 2.2 | 58.12 ± 1.9

CCCCOCCOCCO [3,6-dioxa-1-decanol] + OCCN(CCO)CCO
[2], x1 = 1
Conditions | mass density [kg/m3] | viscosity [mPa·s]
293.15 K | 952.9 ± 2.1 | 5.84 ± 0.18
303.15 K | 943.5 ± 2 | 4.23 ± 0.13
313.15 K | 935.7 ± 2 | 3.22 ± 0.1
323.15 K | 926.6 ± 2 | 2.51 ± 0.08
333.15 K | 918.5 ± 2 | 2 ± 0.06

NCCO [2-aminoethan-1-ol]
[1]
Conditions | mass density [kg/m3] | viscosity [mPa·s]
293.15 K | 1016.1 ± 2.1 | 24.14 ± 0.76
303.15 K | 1008.4 ± 2.1 | 14.88 ± 0.48
313.15 K | 1000.1 ± 2.1 | 9.93 ± 0.32
323.15 K | 991.9 ± 2.1 | 6.89 ± 0.22
333.15 K | 983.6 ± 2.1 | 4.97 ± 0.16

OCCNCCO [diethanolamine] + CCCCOCCOCCO
[2], x2 = 0
Conditions | mass density [kg/m3] | viscosity [mPa·s]
293.15 K | 1096.1 ± 2.3 | 890.9 ± 49
303.15 K | 1089.8 ± 2.2 | 382.2 ± 18
313.15 K | 1083.7 ± 2.2 | 187.6 ± 7.4
323.15 K | 1077.4 ± 2.2 | 99.11 ± 3.4
333.15 K | 1070.7 ± 2.2 | 58.12 ± 1.9

CCCCOCCOCCO [3,6-dioxa-1-decanol]
[1]
Conditions | mass density [kg/m3] | viscosity [mPa·s]
293.15 K | 952.9 ± 2.1 | 5.84 ± 0.18
303.15 K | 943.5 ± 2 | 4.23 ± 0.13
313.15 K | 935.7 ± 2 | 3.22 ± 0.1
323.15 K | 926.6 ± 2 | 2.51 ± 0.08
333.15 K | 918.5 ± 2 | 2 ± 0.06

NCCO [2-aminoethan-1-ol] + CCCCOCCOCCO
[2], x2 = 0
Conditions | mass density [kg/m3] | viscosity [mPa·s]
293.15 K | 1016.1 ± 2.1 | 24.14 ± 0.76
303.15 K | 1008.4 ± 2.1 | 14.88 ± 0.48
313.15 K | 1000.1 ± 2.1 | 9.93 ± 0.32
323.15 K | 991.9 ± 2.1 | 6.89 ± 0.22
333.15 K | 983.6 ± 2.1 | 4.97 ± 0.16
